The values below are quoted from earlier work in patent US6949582B1, “Method of relieving analgesia and reducing inflamation using a cannabinoid delivery topical liniment” (priority 1999, dated 2005).

For series [1] the following is noted: mice, given orally.
The conditions of series [2]: rat hind-paw edema from carrageenan or PGE-1.
Series [3] deals with interleukin, TNF, cytokine-induced genes. The settings on record: carrageenan-induced edema, up-regulation of cytokine-induced genes. A general note: In the carrageenan paw model, swelling and tenderness develop within hours.
Series [4] deals with human rheumatoid synovial cells.
For series [5] the following is noted: live rats, carriers PEG, Transcutol, PG:EtOH 7:3.
Series [6] has as its system cytokines such as TNFα. The settings on record: in vivo.
The subject of series [7] is CB2. The settings on record: by down-modulating mast cell formation after injury.
The test system of series [8] is peripheral CB1-like and CB2-like receptors. The note with it: in vivo.
Series [9] deals with mast-cell activation.
In series [10] the target is T1, peripheral CB1 receptor (Rattus norvegicus, UniProt P20272).
T1 construct: host or cells: rat, peripheral tissue (hindpaw) in vivo
T1 sequence (P20272 whole entry): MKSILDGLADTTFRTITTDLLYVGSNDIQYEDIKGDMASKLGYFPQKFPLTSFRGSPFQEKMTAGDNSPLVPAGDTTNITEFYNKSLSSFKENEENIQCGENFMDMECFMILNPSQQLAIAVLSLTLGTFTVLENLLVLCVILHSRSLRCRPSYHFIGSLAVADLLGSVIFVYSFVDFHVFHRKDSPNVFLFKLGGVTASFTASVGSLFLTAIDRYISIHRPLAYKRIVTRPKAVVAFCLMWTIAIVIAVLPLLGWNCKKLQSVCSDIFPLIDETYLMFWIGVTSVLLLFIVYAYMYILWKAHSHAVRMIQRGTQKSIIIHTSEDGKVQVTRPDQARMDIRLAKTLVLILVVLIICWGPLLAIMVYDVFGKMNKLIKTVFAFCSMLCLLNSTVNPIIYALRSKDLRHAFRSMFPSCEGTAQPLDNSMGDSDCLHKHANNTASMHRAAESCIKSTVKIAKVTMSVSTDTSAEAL

In series [11] the test system is calcitonin gene-related peptide release. The note with it: isolated hindpaw skin.
The conditions of series [12]: in vivo.
Series [13] has as its system cell culture model.
For series [14], the system named is prostaglandin biosynthesis.
[15] abbreviates: peripheral, but not systemic, administration of 0.01 ng.

As for `CCCCCCC(C)(C)c1cc(O)c2c(c1)OC(C)(C)[C@@H]1CC=C(C(=O)O)C[C@@H]21`, the “acute and chronic inflammatory changes” value in series [1] was “supresses acute and chronic inflammatory changes”.

Regarding `CC1=CCC2CC1C2(C)C` (stereo not drawn) [Alpha-pinene], the anti-inflammatory activity result in [2] is “demonstrate anti-inflammatory activity”.

On to `O=c1cc(-c2ccc(O)cc2)oc2cc(O)cc(O)c12` [Apigenin], for which the anti-inflammatory actions result in series [3] is given as “important anti-inflammatory actions”.

`COc1cc(-c2cc(=O)c3c(O)c(C/C=C(\C)CCC=C(C)C)c(O)cc3o2)ccc1O` [Cannflavin A]: the “potency of inhibition of prostaglandin E-2 production relative to aspirin” value in series [4] is on record as 30 times.

With `COc1cc(-c2cc(=O)c3c(O)c(CC=C(C)C)c(O)cc3o2)ccc1O` [Cannflavin B], the “potency of inhibition of prostaglandin E-2 production relative to aspirin” value in series [4] is recorded as 30 times.

As to `CCCCCc1cc(O)c2c(c1)OC(C)(C)[C@@H]1CC=C(C)C[C@@H]21` [Delta-8 THC], the “skin penetration by carrier” value in series [5] (after 2 hrs) is reported as “highest skin penetration of THC was observed from the Transcutol”. In addition, the “concentration in skin layers by carrier” value in [5] (after 24 hours) is recorded as “the Transcutol system delivered the highest THC concentration to the various layers of the skin”.

Turning to `CCCCCCC(C)(C)c1cc(O)c2c(c1)OC(C)(C)[C@H]1CC=C(CO)C[C@H]21` [HU-211], the “inflammation caused by mobilization of cytokines such as TNFα” value in series [6] is on record as “supress inflammation”.

As to `CCCCCCCCCCCCCCCC(=O)NCCO` [Palmitoylethanolamide, palmitylethanolamide], in series [7], the “carageenan-induced mechanical hyperalgesia and edema” value is reported as “attenuates”. In series [8], the “pain behavior produced by chemical damage to cutaneous tissue” value (from here on “pain behavior produced”) is “exerts a similar effect”. Also, the “mast-cell activation and inflammatory responses” value in [9] was “inhibits mast-cell activation and reduces inflammatory responses”.

Consider `Cc1c(C(=O)NN2CCCCC2)nn(-c2ccc(Cl)cc2Cl)c1-c1ccc(Cl)cc1` [SR141716A], for which the “pain behavior produced” value in series [8] was “prolong and enhance the pain behavior”.

Consider `CCCCC/C=C\C/C=C\C/C=C\C/C=C\CCCC(=O)NCCO` [anandamide, arachidonyl-ethanolamide], for which, in series [10] (peripheral administration, reversed by CB1 antagonist SR 141716A), the “hyperalgesia after its development” value is “attenuated hyperalgesia”. In series [10] (setting [15]), the edema result is “inhibited edema” and the induction of hyperalgesia entry was “inhibited the induction of hyperalgesia”. The “capsaicin-evoked release of calcitonin gene-related peptide” value in series [11] is on record as “inhibited”. In addition, the “pain behavior produced” value in [8] is on record as “attenuates the pain behavior”.

Turning to `C=C(C)[C@@H]1CCC(C)=C[C@H]1c1c(O)cc(CCCCC)cc1O` [cannabidiol], the “reduction of inflammation compared with aspirin” value in [12] is recorded as “more effective than aspirin”. Besides, the “neuroprotective properties compared with other antioxidants” value in [13] is “matched or surpassed other antioxidants”.

For the compound `CCCCCc1cc(O)c2c(c1)OC(C)(C)[C@@H]1CCC(C)=C[C@@H]21` [delta-9-tetrahydrocannabinol], the “analgesic effects compared with codeine” value (double blind controlled cross over study) is listed as “analgesic effects equivalent to codeine”. Also, for the setting “patients with cancer pain, second study”, the analgesia entry is “significant analgesia”.

On to `C=CCc1ccc(O)c(OC)c1` [eugenol], for which the prostaglandin inhibition result in series [14] is “potent”.

Turning to SR144528, the “pain behavior produced” value in series [8] was “prolong and enhance the pain behavior”.

On to caryophyllene, for which the anti-inflammatory activity result in series [2] was “demonstrate anti-inflammatory activity”.
